Counter-ions that a name gives are not always drawn. Like-named read-outs stand apart in the source and are kept apart here. Starred links: 1 amine or outer side, 2 acyl side, 3 side chain; linkers in the order of their positions; H or OH if unused. Positions of bridges follow the written chain, without caps; N, C: chain ends. Non-standard residues stand in square brackets, D forms with d. Residues, ends and D or L forms follow the SMILES beside them. *: point of attachment. X1 = NC1=N[C@@H]([C@H](N[*:1])C(=O)[*:2])C[C@H](O)N1; ΔAla(Z-3-ureido) = NC(=O)N/C=C(\N)C(=O)O; β3hOrn = NCCC[C@H](N)CC(=O)*; Dap = NC[C@H](N)C(=O)O

Test [1] has as its target T1, human NTCP (Homo sapiens, UniProt Q14973).
T1 sequence (Q14973 1-349): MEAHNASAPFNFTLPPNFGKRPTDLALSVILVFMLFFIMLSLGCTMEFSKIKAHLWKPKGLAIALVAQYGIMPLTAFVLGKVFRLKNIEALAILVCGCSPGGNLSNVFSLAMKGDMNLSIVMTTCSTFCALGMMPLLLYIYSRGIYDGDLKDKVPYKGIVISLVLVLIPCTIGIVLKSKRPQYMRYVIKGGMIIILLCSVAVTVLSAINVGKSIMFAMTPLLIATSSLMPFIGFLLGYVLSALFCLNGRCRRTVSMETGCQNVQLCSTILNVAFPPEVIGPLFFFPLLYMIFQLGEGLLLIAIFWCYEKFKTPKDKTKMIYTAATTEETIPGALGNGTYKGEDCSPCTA
Nature of the test: Screening fluorescent competitive Myrcludex B-FITC binding assay (96-well, 10 µM drug).

The target in test [2] is T1, human NTCP. The test is described as follows: Screening taurocholate uptake assay (96-well, [14C]taurocholate, 10 µM drug).
[3] abbreviates: Prestwick library screen, 10 µM drug, B-score of Myrcludex B-FITC binding.
Where [4] appears, read: Prestwick library screen, 10 µM drug, B-score of taurocholate uptake.
The mark [5] stands for this setting: combined ranking from functional and binding assay B-scores.
The mark [6] stands for this setting: screen, 10 µM drug, Myrcludex B-FITC binding.
The mark [7] stands for this setting: combined ranking from functional and binding screening assays.
Setting [8] is: screen, 10 µM drug, taurocholate uptake.
The mark [9] stands for this setting: Prestwick library screen, Myrcludex B-FITC binding, 10 µM drug.
The mark [10] stands for this setting: Prestwick library screen, taurocholate uptake, 10 µM drug.
Setting [11] is: ranking score beside the functional and binding assay B-scores of the screen.

On human NTCP [1] (setting [3]), `Cc1onc(-c2ccccc2)c1C(=O)N[C@@H]1C(=O)N2[C@@H]1SC(C)(C)[C@@H]2C(=O)[O-].[Na+]` [Oxacillin sodium] showed a B-score binding assay of 0.083. The compound further yielded a B-score functional assay on human NTCP [2] (setting [4]) of 0.869. Moreover, on human NTCP [2] (setting [5]), the Ranking score was 869.572.
For the compound `NNC(=O)c1ccncc1` [Isoniazid], at human NTCP [1] (setting [3]), the B-score binding assay was 1.337. Moreover, the B-score functional assay on human NTCP [2] (setting [4]) was found to be 1.386. Further, at human NTCP [2] (setting [5]), the Ranking score is given as 1117.92.
`COP(=O)(OC)C(O)C(Cl)(Cl)Cl` (stereo not drawn) [Trichlorfon] gave a B-score binding assay on human NTCP [1] (setting [6]) of 0.016. Further, the Ranking score on human NTCP [2] (setting [7]) is 431.184. In addition, at human NTCP [2] (setting [8]), the B-score functional assay is -0.853.
On the same counts, the results for `CC(C(=O)[O-])c1cccc(Oc2ccccc2)c1.CC(C(=O)[O-])c1cccc(Oc2ccccc2)c1.O.O.[Ca+2]` (stereo not drawn) [Fenoprofen calcium salt dihydrate] are 0.022, 452.388 and -0.759.
On to `O=C(O)C(O)C(O)C(=O)O.O=C(c1ccc(F)cc1)C1CCN(CCn2c(=O)[nH]c3ccccc3c2=O)CC1` [Ketanserin tartrate hydrate], for which the B-score binding assay at human NTCP [1] (setting [9]) is recorded as -0.046. Also, the B-score functional assay at human NTCP [2] (setting [10]) was 0.482. On human NTCP [2] (setting [11]), the Ranking score was 727.865.
On the same counts, the results for `CCN(CC)Cc1cc(Nc2ccnc3cc(Cl)ccc23)ccc1O.Cl.Cl.O.O` [Amodiaquin dihydrochloride dihydrate] are 1.445, -0.477 and 658.143.
In the case of `CCOc1ccccc1OC(c1ccccc1)C1CNCCO1.CS(=O)(=O)O` (stereo not drawn) [Reboxetine mesylate], the B-score binding assay at human NTCP [1] (setting [9]) is on record as -0.028. Also, the B-score functional assay at human NTCP [2] (setting [10]) was 1.175. On human NTCP [2] (setting [11]), this compound yielded a Ranking score of 814.737.
As for `CC(Cc1ccccc1)NCCC(c1ccccc1)c1ccccc1` (stereo not drawn) [Prenylamine lactate], at human NTCP [1] (setting [3]), the B-score binding assay is 0.388. The same compound returned a B-score functional assay on human NTCP [2] (setting [4]) of 1.102. Moreover, the Ranking score at human NTCP [2] (setting [5]) is 975.256.
On the same counts, the results for `NCCC[C@H](N)CC(=O)N[C@H]1CNC(=O)[C@H]([C@H]2C[C@H](O)NC(N)=N2)NC(=O)/C(=C/NC(N)=O)NC(=O)[C@H](CO)NC(=O)[C@H](CO)NC1=O.O=S(=O)(O)O` [Viomycin sulfate] (β3hOrn-[Dap]SS[ΔAla(Z-3-ureido)][X1]; lactam 1-C) are 0.234, 0.436 and 846.67.
On to `CC(Cc1ccc(O)cc1)NCC(O)c1cc(O)cc(O)c1` (stereo not drawn) [Fenoterol hydrobromide], for which the B-score binding assay at human NTCP [1] (setting [6]) is listed as -1.328. Moreover, the Ranking score on human NTCP [2] (setting [7]) worked out at 457.393. This compound also had a B-score functional assay on human NTCP [2] (setting [8]) of 1.4.
For `Nc1ccc(S(N)(=O)=O)cc1` [Sulfanilamide], in that order: -1.742, 381.13 and 1.042.
`CC(C)(C)NC[C@H](O)COc1nsnc1N1CCOCC1.O=C(O)/C=C\C(=O)O` [Timolol maleate salt] gave a B-score binding assay at human NTCP [1] (setting [3]) of 0.866. Besides, the B-score functional assay on human NTCP [2] (setting [4]) is on record as 1.166. Also, the Ranking score at human NTCP [2] (setting [5]) amounted to 1052.08.
As to `Nc1nc(N)nc(-c2cc(Cl)ccc2Cl)n1` [Irsogladine maleate], the B-score binding assay on human NTCP [1] (setting [9]) is listed as -0.312. On human NTCP [2] (setting [10]), this compound came in with a B-score functional assay of 5.029. In addition, the Ranking score at human NTCP [2] (setting [11]) is listed as 750.144.
For `CCCCCCCN(CC)CCCC(O)c1ccc(NS(C)(=O)=O)cc1.CCCCCCCN(CC)CCCC(O)c1ccc(NS(C)(=O)=O)cc1.O=C(O)/C=C/C(=O)O` (stereo not drawn) [Ibutilide fumarate], in that order: 0.907, 0.035 and 835.048.
On the same counts, the results for `CN1CCC(=C2c3ccccc3C=Cc3ccccc32)CC1` [Cyproheptadine hydrochloride] are 0.492, -0.111 and 690.33.
For the compound `NCCCC[C@H](N[C@@H](CCc1ccccc1)C(=O)O)C(=O)N1CCC[C@H]1C(=O)O` [Lisinopril], on human NTCP [1] (setting [6]), the B-score binding assay is -1.412. Besides, at human NTCP [2] (setting [7]), the Ranking score is given as 445.618. For the same compound, the B-score functional assay on human NTCP [2] (setting [8]) amounted to 1.757.
For the compound `CN[C@H](CC(C)C)C(=O)N[C@H]1C(=O)N[C@@H](CC(N)=O)C(=O)N[C@H]2C(=O)N[C@H]3C(=O)N[C@H](C(=O)N[C@H](C(=O)O)c4cc(O)cc(O)c4-c4cc3ccc4O)[C@H](O)c3ccc(c(Cl)c3)Oc3cc2cc(c3O[C@@H]2O[C@H](CO)[C@@H](O)[C@H](O)[C@H]2O[C@H]2C[C@](C)(N)[C@H](O)[C@H](C)O2)Oc2ccc(cc2Cl)[C@H]1O` [Vancomycin hydrochloride], the B-score binding assay at human NTCP [1] stood at 1.401. Also, on human NTCP [2], the B-score functional assay is recorded as -0.819 and the Ranking score came to 571.108.
The compound `CC(C)C(=O)c1c(C(C)C)nn2ccccc12` [Ibudilast] returned a B-score binding assay on human NTCP [1] (setting [3]) of 0.677. Further, the B-score functional assay at human NTCP [2] (setting [4]) came out at 0.276. Further, at human NTCP [2] (setting [5]), the Ranking score is recorded as 895.497.
On to `Oc1ccc2c3c1O[C@H]1[C@@H](O)CC[C@@]4(O)[C@@H](C2)N(CC2CCC2)CC[C@]314` [Nalbuphine hydrochloride], for which the B-score binding assay at human NTCP [1] is -0.132. At human NTCP [2], the B-score functional assay is recorded as -1.445 and the Ranking score came to 312.49.
For the compound `CC(=O)O[C@H]1C[C@@H]2CC[C@@H]3[C@H](CC[C@@]4(C)[C@H]3C[C@H]([N+]3(C)CCCCC3)[C@@H]4OC(C)=O)[C@@]2(C)C[C@@H]1[N+]1(C)CCCCC1` [Pancuronium bromide], on human NTCP [1] (setting [9]), the B-score binding assay is -0.008. The B-score functional assay on human NTCP [2] (setting [10]) was determined as 0.614. The Ranking score on human NTCP [2] (setting [11]) was 767.5.
Compound `Nc1nc(O)c2[nH]nnc2n1` [Azaguanine-8] gave a B-score binding assay on human NTCP [1] (setting [3]) of 0.825. In addition, the B-score functional assay on human NTCP [2] (setting [4]) is on record as 3.711. At human NTCP [2] (setting [5]), the Ranking score is 1120.13.
`CCn1cc(C(=O)O)c(=O)c2cnc(N3CCNCC3)nc21` [Pipemidic acid] came in with a B-score binding assay at human NTCP [1] (setting [9]) of 0.325. Also, the B-score functional assay on human NTCP [2] (setting [10]) is -0.002. Besides, the Ranking score on human NTCP [2] (setting [11]) came out at 736.261.
Take `Cn1c(=O)c2c(ncn2CC(=O)O)n(C)c1=O` [Acefylline]: the B-score binding assay at human NTCP [1] (setting [3]) was 0.607. On human NTCP [2] (setting [4]), this compound returned a B-score functional assay of 0.41. For the same compound, the Ranking score on human NTCP [2] (setting [5]) is given as 910.022.
`CC(C(=O)O)c1ccc2c(c1)[nH]c1ccc(Cl)cc12` (stereo not drawn) [Carprofen] had a B-score binding assay on human NTCP [1] (setting [6]) of 0.048. In addition, on human NTCP [2] (setting [7]), the Ranking score was 288.205. In addition, the B-score functional assay at human NTCP [2] (setting [8]) was -2.152.
In the case of `COc1ccc(C[C@@H]2c3cc(OC)c(OC)cc3CC[N@+]2(C)CCC(=O)OCCCCCOC(=O)CC[N@@+]2(C)CCc3cc(OC)c(OC)cc3[C@H]2Cc2ccc(OC)c(OC)c2)cc1OC` [Cisatracurium besylate], the B-score binding assay on human NTCP [1] (setting [9]) is recorded as -0.016. In addition, at human NTCP [2] (setting [10]), the B-score functional assay is on record as 0.628. The Ranking score on human NTCP [2] (setting [11]) is given as 764.984.
For `NC(=O)c1cc[n+](CC2=C(C(=O)O)N3C(=O)[C@@H](NC(=O)[C@@H](c4ccccc4)S(=O)(=O)[O-])[C@H]3SC2)cc1` [Cefsulodin sodium salt], in that order: -0.269, 0.682 and 669.358.
On the same counts, the results for `Cc1ccc(O)c([C@H](CCN(C(C)C)C(C)C)c2ccccc2)c1` [Tolterodine tartrate] are 0.032, 0.018 and 673.446.
For `CC(=O)OCC(=O)[C@@]1(O)CC[C@H]2[C@@H]3CCC4=CC(=O)CC[C@]4(C)[C@@]3(F)[C@@H](O)C[C@@]21C` [Fludrocortisone acetate], at human NTCP [1] (setting [6]), the B-score binding assay is recorded as -0.826. Further, the Ranking score at human NTCP [2] (setting [7]) amounted to 430.869. For the same compound, at human NTCP [2] (setting [8]), the B-score functional assay is on record as 0.011.
`C[C@]12COC(=O)C[C@@H]1CC[C@@H]1[C@@H]2CC[C@@]2(C)[C@H]1CC[C@]2(C)O` [Oxandrolone]: at human NTCP [1], the B-score binding assay was 1.484. Also, at human NTCP [2], the B-score functional assay is -0.501 and the Ranking score worked out at 649.785.
In the case of `N=C(N)N1CCc2ccccc2C1` [Debrisoquin sulfate], the B-score binding assay at human NTCP [1] (setting [3]) came to 0.059. On human NTCP [2] (setting [4]), this compound came in with a B-score functional assay of 2.382. Moreover, at human NTCP [2] (setting [5]), the Ranking score stood at 932.772.
As for `CC(=O)O[C@H]1C[C@@H]2CC[C@@H]3[C@H](CC[C@@]4(C)[C@H]3C[C@H]([N+]3(C)CCCCC3)[C@@H]4OC(C)=O)[C@@]2(C)C[C@@H]1N1CCCCC1` [Vecuronium bromide], the B-score binding assay at human NTCP [1] (setting [9]) is recorded as 0.155. At human NTCP [2] (setting [10]), this compound displayed a B-score functional assay of 0.006. For the same compound, on human NTCP [2] (setting [11]), the Ranking score is reported as 708.114.
For the compound `CC(C)COCC(CN(Cc1ccccc1)c1ccccc1)N1CCCC1` (stereo not drawn) [Bepridil hydrochloride], the B-score binding assay at human NTCP [1] (setting [6]) is -1.626. The Ranking score at human NTCP [2] (setting [7]) is 392.989. The same compound registered a B-score functional assay on human NTCP [2] (setting [8]) of 1.07.
Compound `NCCc1ccc(O)c(O)c1` [Dopamine hydrochloride] registered a B-score binding assay on human NTCP [1] (setting [9]) of 1.493. Besides, the B-score functional assay on human NTCP [2] (setting [10]) is -0.07. Further, the Ranking score at human NTCP [2] (setting [11]) was found to be 802.566.
